One assay concerns the target T1, squalene synthase (Rattus norvegicus, UniProt Q02769).
T1 construct: from tissue; host or cells: rat liver homogenate
T1 sequence (Q02769 1-416): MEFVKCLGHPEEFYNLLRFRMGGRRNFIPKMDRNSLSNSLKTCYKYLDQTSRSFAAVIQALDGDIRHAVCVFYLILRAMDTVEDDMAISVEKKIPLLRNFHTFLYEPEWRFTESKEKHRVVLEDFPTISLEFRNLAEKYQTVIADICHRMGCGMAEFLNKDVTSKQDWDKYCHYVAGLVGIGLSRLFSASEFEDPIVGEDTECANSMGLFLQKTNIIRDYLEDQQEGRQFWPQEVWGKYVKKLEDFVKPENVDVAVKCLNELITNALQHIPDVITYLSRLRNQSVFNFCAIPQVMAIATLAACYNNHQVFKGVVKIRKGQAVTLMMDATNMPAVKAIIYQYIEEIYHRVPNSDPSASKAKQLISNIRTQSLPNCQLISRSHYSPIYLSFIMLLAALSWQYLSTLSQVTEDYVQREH
Kind of assay: Inhibition of squalene synthase ([14C]squalene production from [2-14C]farnesylpyrophosphate). The assay is classed as biochemical. A digest of the protocol: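 Rat liver homogenate incubated 30 min with test compound and [2-14C]farnesylpyrophosphate. [14C]squalene separated from substrate by TLC and counted by liquid scintillation; IC50 is the concentration giving 50% inhibition of squalene production.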

In assay [1] the test system is clinically relevant pathogens. Kind of assay: In vitro antifungal activity, agar plate MIC determination. Format: cell-based. The note with it: Candida albicans. The method, then:
The in vitro evaluation of the anti-fungal activity of compounds of the invention can be performed by determining the minimum inhibitory concentration (MIC) which is the concentration of the test compound in a suitable medium at which growth of a particular microorganism fails to occur.
[¹⁴C] Squalene was separated from unreacted substrate on thin layer chromatography plates and determined by liquid scintillation counting. Inhibition of squalene synthase was quantified by incubating rat liver homogenate with various concentrations of the test compound in the presence of [2-¹⁴C] farnesylpyrophosphate. The concentration of compound giving 50% inhibition of [¹⁴C] squalene production in a 30 minute assay was taken as the IC₅₀ value. […] In practice, a series of agar plates, each having the test compound incorporated at a particular concentration, was inoculated with a standard culture of a clinically relevant pathogen, for example Candida albicans, and each plate was then incubated at 37 °C for 24 to 48 hours depending on the pathogen.

The structures appear in SMILES notation. Values after ≈ are worked out from the molar mass of the structure shown.

Regarding `C=C(CC[C@]12O[C@H](C(=O)O)[C@@](O)(C(=O)O)[C@](C(=O)O)(O1)[C@H](OC(=O)CCCCCCc1ccccc1)[C@H]2O)[C@@H](OC(C)=O)[C@H](C)Cc1ccccc1` (relative stereo) [Example 39, [1S-[1α(4R*,5S*)3α,4β,5α,6α,7β]] 1-(4-Acetyloxy-5-methyl-3-methylene-6-phenylhexyl)-4,6,7-trihydroxy-2,8-dioxabicyclo[3.2.1]octane-3,4,5-tricarboxylic acid, 6-(7-phenylheptanoate)], the IC50 (as a rule, the concentration that gives 50% inhibition) against squalene synthase was less than 100 nM. For the same compound, the MIC (commonly the least concentration at which growth counts as inhibited) in assay [1] is 0.1 to 31 µg/mL (≈ 0.138 to 42.7 µM).
As to `C=C(CC[C@]12O[C@H](C(=O)O)[C@@](O)(C(=O)O)[C@](C(=O)O)(O1)[C@H](OC(=O)CC13CC4CC(CC(C4)C1)C3)[C@H]2O)[C@@H](OC(C)=O)[C@H](C)Cc1ccccc1` (relative stereo) [Example 45, [1S-[1α(4R*,5S*),3α,4β,5α,6α,7β]] 1-(4-Acetyloxy-5-methyl-3-methylene-6-phenylhexyl)-4,6,7-trihydroxy-2,8-dioxabicyclo[3.2.1]octane-3,4,5-tricarboxylic acid, 6-[1-(tricyclo[3.3.1.1^3,7]decyl)acetate]], the IC50 against squalene synthase is less than 100 nM. Further, in assay [1], the minimal inhibitory concentration (MIC) lay in the range of 0.1 to 31 µg/mL (≈ 0.14 to 43.4 µM).
On to `CCC(C)CC(C)CCC(=O)OC1C(O)C2(CCC(O)C(O)C(C)Cc3ccccc3)OC(C(=O)O)C(O)(C(=O)O)C1(C(=O)O)O2` (stereo not drawn) [Example 18, [1S-[1α(3R*S*,4R*,5S*),3α,4β,5α,6α(4S*,6R*),7β]] 1-(3,4-Dihydroxy-5-methyl-6-phenylhexyl)-4,6,7-trihydroxy-2,8-dioxabicyclo[3.2.1]octane-3,4,5-tricarboxylic acid, 6-(4,6-dimethyloctanoate)], for which, on squalene synthase, the IC50 is less than 100 nM. The same compound yielded an MIC in assay [1] of 0.1 to 31 µg/mL (≈ 0.153 to 47.3 µM).
Turning to `C=C(CCC12OC(C(=O)O)C(O)(C(=O)O)C(C(=O)O)(O1)C(OC(=O)C=CC(C)CC(C)CC)C2OC(C)=O)C(OC(C)=O)C(C)Cc1ccccc1` (stereo not drawn) [Example 24, [1S-[1α(4R*,5S*),3α,4β,5α,6α(2E,4R*,6R*),7β]] 7-Acetyloxy-1-(4-acetyloxy-5-methyl-3-methylene-6-phenylhexyl)-4,6-dihydroxy-2,8-dioxabicyclo[3.2.1]octane-3,4,5-tricarboxylic acid, 6-(4,6-dimethyl-2-octenoate)], on squalene synthase, the IC50 is less than 100 nM. This compound came in with an MIC in assay [1] of 0.1 to 31 µg/mL (≈ 0.136 to 42.3 µM).

The values above are taken from patent EP0497091A1, “Bridged cyclic ketal derivatives” (GLAXO GROUP LIMITED, priority 1991, dated 1992).
